This is an account of results in US9493420B2, “Quinoline derivatives and uses thereof” (Portland State University, priority 2005, dated 2016).

Test [1] has as its target T1, recombinant human norepinephrine (hNET) transporter (Homo sapiens, UniProt P23975).
T1 construct: expressed in transfected cells; host or cells: HEK cells expressing hNET
Put plainly: Inhibition of [3H]neurotransmitter uptake, hNET. The format is cell-based. As to the method: Selected RCQs were tested for inhibition of [^3H]neurotransmitter uptake by the recombinant human serotonin (hSERT), dopamine (HEK-hDAT), and norepinephrine (hNET) transporters by a modification of the method of Eshleman et al. (J. Pharmacol. Exp. Ther., 289(2):877-885, 1999). HEK-hDAT, hSERT, and -hNET expressing cells were grown on tissue culture dishes. After removing the medium and washing the plates with Ca^2+-, Mg^2+-free phosphate buffered saline (PBS), fresh medium was added and the plates were placed in a 25° C. water bath for 5 minutes. Cells were gently lifted from the plates and cell clusters separated by trituration. 50 μL aliquots of the suspended cells were added to assay tubes containing drugs and Krebs-HEPES assay buffer in a final volume of 0.5 mL.
Competition experiments were conducted in triplicate. After a 10 minute preincubation period at 25° C., [^3H]neurotransmitter (20 nM final concentration; [^3H]DA, [^3H]5-HT, or [^3H]NE) were added, and the mixtures incubated for 10 minutes. Reactions were terminated by filtration through Wallac filtermat A filters (presoaked in 0.05% polyethylenimine), using a Tomtec cell harvester. Scintillation fluid was added to each filtered spot, and radioactivity remaining on the filters determined using a Wallac 1205 Betaplate scintillation counter.
Specific uptake was defined as the difference in uptake observed in the absence and presence of 5 μM mazindol (hDAT and hNET) or 5 μM imipramine (hSERT). Inhibition of uptake was determined by non-linear regression using Prism software.

Test [2] has as its system D6 (CQ^S) P. falciparum strain. Briefly: In vitro fluorescence (Sybr Green I) growth inhibition assay, D6 strain. Type of test: cell-based. To be noted: Plasmodium falciparum, D6; Table 13; growth inhibition; read-out: IC50 (nM) D6 (CQ^S). From the text:
One exemplary method for measuring inhibitory effects of RCQ compound in vitro has been reported by Smilkstein et al. (Antimicrob. Agents Chemother., 48(5):1803-1806, 2004). This method employs fluorescent detection of the level of parasitemia in cultured red blood cells and can be automated for high-throughput screening of antimalarial RCQs. This exemplary method allows the inhibitory agent (such as a RCQ) to be in contact with the parasite for an entire developmental cycle without purine starvation, which is in contrast to the traditional ^3H-hypoxanthine method (Desjardins et al., Antimicrob. Agents Chemother., 16(6):710-718, 1979). Briefly, to perform the Smilkstein et al. method, an initial parasitemia of approximately 0.2% is attained by adding uninfected red blood cells (RBCs) to a stock culture of Plasmodium sp.-infected RBCs. […] After a period of incubation (such as about 72 hours), a sufficient amount (e.g., 100 μL) of a fluorescent DNA binding dye-detergent mixture (e.g., Sybr Green I dye-detergent mixture) to lyse cells and bind to DNA is added to the reactions. Because uninfected RBCs have no DNA, only parasite DNA (in infected RBCs) is available for binding to the fluorescent dye (e.g., Sybr Green I). Samples are then incubated in the dark for a period of time (e.g., one hour), followed by measurement of levels of fluorescence. For Sybr Green I, excitation and emission wavelength are 485 and 530 nm, respectively. Fluorescence readings, which represent the amount of parasite DNA in the sample, can be plotted against the Log [drug] and fit to a curve by nonlinear regression to obtain the IC50 value for the tested compound.
An in vitro fluorescence assay for determining IC50 of antimalarial drugs was performed as previously described by Smilkstein et al. (Antimicrob. Agents Chemother., 48(5):1803-1806, 2004). This relatively low-cost procedure can be automated for high-throughput screening of the antimalarial activities of RCQs described herein. Advantageous, this method also allows the tested agent (e.g, a RCQ) to be in contact with the parasite for an entire developmental cycle without purine starvation (which occurs with the commonly used ^3H-hypoxanthine method; see, e.g., Desjardins et al., Antimicrob. Agents Chemother., 16, (6):[…], 1979).
Briefly, an initial parasitemia of approximately 0.2% was attained by addition of uninfected red blood cells to a stock culture of cells infected with Dd2 (CQ^R) or D6 (CQ^S) P. falciparum strains. A 10 mM RCQ_02 solution (in DMSO) was prepared. RCQ_02 (at a final concentration from 10^−11 to 10^−4 M) and infected red blood cells (at a final concentration of 2% (v/v)) were mixed in 100 μL samples in individual wells of a 96-well plate. Each sample was prepared in triplicate. A triplicate set of reactions containing CQ (instead of RCQ_02) was included as a control. After a 72 hour incubation period, Sybr Green I dye-detergent mixture (100 μL) was added to each reaction. The samples were further incubated for an hour in the dark, and then placed in a 96-well fluorescence plate reader (Gemini-EM, […]) and analyzed with excitation and emission wavelength bands at 485 and 530 nm, respectively. Fluorescence readings were plotted against the Log [drug], and curve fitting performed by nonlinear regression to find the IC50 value.

T1 sequence (P23975 whole entry): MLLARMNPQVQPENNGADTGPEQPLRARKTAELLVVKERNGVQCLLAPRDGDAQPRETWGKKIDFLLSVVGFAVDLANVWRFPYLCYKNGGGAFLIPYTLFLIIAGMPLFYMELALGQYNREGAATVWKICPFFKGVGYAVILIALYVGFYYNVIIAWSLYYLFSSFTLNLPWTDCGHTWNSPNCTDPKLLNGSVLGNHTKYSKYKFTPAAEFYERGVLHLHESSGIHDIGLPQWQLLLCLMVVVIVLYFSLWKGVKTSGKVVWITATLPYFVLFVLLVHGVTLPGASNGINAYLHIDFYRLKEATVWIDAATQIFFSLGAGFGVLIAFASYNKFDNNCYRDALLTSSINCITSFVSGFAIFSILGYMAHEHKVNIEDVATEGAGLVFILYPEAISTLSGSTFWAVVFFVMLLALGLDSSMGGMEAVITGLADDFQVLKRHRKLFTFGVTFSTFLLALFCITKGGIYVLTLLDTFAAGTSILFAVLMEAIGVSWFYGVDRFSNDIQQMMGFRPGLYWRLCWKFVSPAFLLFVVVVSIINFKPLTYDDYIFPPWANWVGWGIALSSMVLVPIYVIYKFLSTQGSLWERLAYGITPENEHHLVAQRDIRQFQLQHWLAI

A word on the IC50: it is the concentration that inhibits the measured activity by half. With `CN(CCCNc1ccnc2cc(Cl)ccc12)CCCN1c2ccccc2CCc2ccccc21` [RCQ_02, N′-(7-Chloro-quinolin-4-yl)-N-[3-(10,11-dihydro-dibenzo[b,f]azepin-5-yl)-propyl]-N-methyl-propane-1,3-diamine], the IC50 in test [1] is 350 nM; in test [2], 2.9 nM.
